Assay results: patent US9115340B2, “Microfluidic continuous flow device” (AGENCY FOR SCIENCE TECHNOLOGY & RESEARCH, priority 2008, dated 2015)

Key:
primary rat hepatocytes [1] = test: Albumin secretion of primary rat hepatocytes cultured in the microfluidic channel (rat albumin ELISA); assay type: cell-based
Description: 200 pg/ml of TGF-β1 was supplemented into cultivation medium (▪). In another set of experiment, TGF-β1 was pre-loaded into gelatin microspheres and was then controlled released to the hepatocytes at a concentration of 217.5 pg/ml ( ?; control release). In the control experiment, there is no TGF-β1 supplemented in cultivation medium (□).
Albumin production was quantified with a rat albumin ELISA quantification kit (Bethyl Laboratories Inc, USA) in the collected cultivation medium everyday. In the presence of TGF-β1, the level of albumin secretion is enhanced. From day 5 onwards, when TGF-β1 is controlled released to the hepatocytes, the level of albumin secretion can be well-sustained.

primary rat hepatocytes [2] = test: UGT activity: 4-MUG production of primary rat hepatocytes in the microfluidic channel (CE-LIF); assay type: cell-based; settings: from day 3 onwards; TGF-β1 controlled released from gelatin microspheres at 217.5 pg/ml; compared to medium-supplemented and control groups
Protocol: The enzyme has the ability to metabolize the substrate 4-methylumbelliferone (MU) into 4-methylumbelliferone-glucuronide (MUG). Thus, the enzyme activity is indicated by the amount of 4-MUG produced by the cells.
Capillary electrophoresis (CE) with fluorimetric detection was used for the simultaneous detection of 4-MU and 4-MUG. Separation is carried out on an untreated fused silica capillary with fluorimetric detection using an excitation wavelength of 320 nm with a 375 nm cut off emission filter. […]
Similar to the UDP-glucuronosyltransferase (UGT) assay described above, UDP-glucuronosyltransferase (UGT) activity of hepatocytes cultured in the compartment of a channel of a microfluidic continuous flow device was determined by infusing 100 μM of 4-methylumbelliferone (4-MU) (Sigma, Singapore) for 4 h at 200 μl/h into the channel. The perfusate (800 μl) was collected and the metabolic product, 4-methylumbelliferone-glucuronide (4-MUG), was analyzed using capillary electrophoresis with laser induced fluorescence (CE-LIF) (Toh, Y. C. et al., 2008, Analyst, vol. 132, no. 3, p. 326) detection (Prince Technologies B.V., Netherlands) at an excitation wavelength of 325 nm.

TGF-β1: growth factor supplemented into cultivation medium or pre-loaded into gelatin microspheres and controlled released to hepatocytes
albumin secretion (primary rat hepatocytes [1]; from day 5 onwards, 200 pg/ml TGF-β1 supplemented into cultivation medium): decreases
level of albumin secretion (primary rat hepatocytes [1]; from day 5 onwards, TGF-β1 controlled released from gelatin microspheres at 217.5 pg/ml): well-sustained
level of albumin secretion (primary rat hepatocytes [1]; in the presence of TGF-β1 (200 pg/ml in medium or 217.5 pg/ml controlled release) versus no TGF-β1): enhanced
level of 4-MUG production (primary rat hepatocytes [2]): greatly enhanced
